We go through twelve substances from US5961978A, “Therapeutically useful peptides and peptide fragments” (Norsk Hydro, a.s., priority 1991, dated 1999).

Where no end group is shown, it is not given here.

One assay concerns HLA-DQ. In words: Peptide inhibition study, clone E as indicator responder cell (binding of peptide 43 to HLA-DQ). The format is cell-based, human. The settings on record: FIG. 7; 5 μmolar peptide 43, 250 μmolar inhibitory peptide. The source says:
Conditions are otherwise as described in FIG. 4.
Five μmolar concentration of stimulatory peptide (peptide 43) and 250 μmolar of the inhibitory peptides were used. Conditions were otherwise as described in FIG. 4. Note: Peptide 65 and 81 are non-stimulatory in a concentration of 10 μmolar (FIG. 6), but are stimulatory in a concentration of 250 μmolar.
In order to map peptide binding to HLA-DR and HLA-DQ, we tested the non-stimulatory p21 ras peptides for capacity to inhibit the binding of peptide 42 to HLA-DR, using stimulation of clone I as indicator system, and inhibition of peptide 43 binding to HLA-DQ using stimulation of clone E as an indicator system.

The target of another assay is DQw6. In words: Inhibition of binding of iodinated indicator peptide P104 to affinity purified HLA DQw6. Further details: species or system human. The settings on record: tested 0,33-10 μM.
In another assay the test system is DR1. The format is binding, human. Conditions: indicator iodinated P34, tested 0,33-10 μM.
A further assay has as its system T cell clone F. The assay is described as follows: T cell proliferation assay, clone F. The format is cell-based, human. Conditions: for stimulation of clone F by truncated forms of peptide 45: 10 μmolar. How it is done: (§1) FIG. 2 and FIGS. 2a-2e show the specificity of the T cell clones I, B, E and F in T cell proliferation assays. Assays were set up in triplicate in 96 well plates, with the five peptides present in the original peptide mixture as stimulating antigens. The wells contained 50000 irradiated (8000 R) autologous EBV transformed B cells as antigen presenting cells (APC).
(§2) Cultures were incubated for 2 days at 37° C. in a 5% CO2 incubator, and pulsed overnight with 1 μCi of ^3 H-thymidine (Amersham, England) per well before harvesting onto glass fibre filters by an automated cell harvester (Scatron, Lierbyen, Norway). Thymidine incorporation into DNA was quantitated by liquid scintillation counting using an LKB 1205 Betaplate Liquid Scintillation counter. Data are given as medians of triplicate cultures. Controls included T cell clones cultured alone, or with APC in the absence of peptides. The panels are scaled according to the magnitude of the positive response.
The conditions of the assay were exactly as described in FIG. 6.
The peptide concentration was as given in the Figure, and the conditions of the assay were otherwise as described for FIG. 6.

A further assay has as its system T cell clone E. In words: T cell proliferation assay, clone E. It is filed as cell-based, human. How it is done: as §1, §2
The conditions of the assay were as described in FIG. 2. […]

Turning to “AGVVGKSALAL [compound 68, N-terminally truncated form of peptide 43]”, the “inhibition of clone E response to peptide 43 by truncated peptides” value (“inhibition of clone E response” for short) in the assay with HLA-DQ was “inhibit”. In the case of “GAGVVGKSALAL [compound 67, N-terminally truncated form of peptide 43]”, the “inhibition of clone E response” value with HLA-DQ is recorded as “inhibit”.

As for “P104: printed Y----------- (SEQ ID NO. 93); iodinated P104 was the indicator peptide for binding to DQw6 (YVVVGAAGVGKSA; also: iodinated) [reference compound]”, the IC50 at DQw6 is less than 0.33 µM; with DR1, 0.78 µM. For the substance “VGAGVVGKSALAL [compound 66, N-terminally truncated form of peptide 43]”, the “inhibition of clone E response” value with HLA-DQ was “inhibit”. The substance VVGAAGVGKS [P88] had a 50% inhibitory concentration (IC50) on DQw6 of 8.97 µM. Moreover, the “dose-response of clone F, potency compared to peptide 45” value in the assay with T cell clone F (FIG. 16) is on record as “far less potent”. At DQw6, VVGAAGVGKSA [p90] showed a concentration for half-maximal inhibition (IC50) of 9.98 µM. Regarding “VVGAAGVGKSALAL [compound 70, N-terminally truncated form of peptide 45]”, the “stimulation of clone F by truncated forms of peptide 45” value in the assay with T cell clone F was “stimulate”. Regarding “VVGAGVVGKSALAL [compound 65, N-terminally truncated form of peptide 43]”, the “stimulation of clone E by truncated forms of peptide 43” value is listed as “non-stimulatory” in the assay with T cell clone E (10 μmolar); “become stimulatory” with T cell clone E (250 μmolar); “stimulatory” in the assay with T cell clone E (250 μmolar, listed as Peptide 65).

At DQw6, VVVGAAGVGKS [P89] registered a half-maximal inhibitory concentration (IC50) of 10 µM. Regarding VVVGAAGVGKSA [p91], the IC50 at DQw6 is 1.29 µM. Turning to “VVVGAAGVGKSALAL [compound 69, N-terminally truncated form of peptide 45]”, the “stimulation of clone F by truncated forms of peptide 45” value with T cell clone F is reported as “stimulate”.

For “VVVGAGVVGKSALAL [compound 64, N-terminally truncated form of peptide 43]”, the “stimulation of clone E by truncated forms of peptide 43” value with T cell clone E (10 μmolar) is on record as “stimulate”.

In general, IC50 refers to the concentration needed to halve the response being measured. Higher therefore signals a need for much substance.
